For 19 molecules, IC50 and GI50 results are on record in patent US11414429B2, “Compound or pharmaceutically acceptable salt thereof” (RIKEN, priority 2016, dated 2022).

One experiment has as its target T1, tankyrase 1 (TNKS 1) (Homo sapiens, UniProt O95271).
T1 construct: 1,024-1,327aa; made in house; host or cells: cell-free protein synthesis system
In words: Tankyrase inhibitory activity test (ELISA, self-polyADP ribosylation), tankyrase 1. It is filed as biochemical. Conditions: self-polyADP ribosylation. The procedure, abridged:
(§1)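 IC50 was fitted to residual self-polyADP-ribosylation activity, detected by HRP-streptavidin chemiluminescence. Plate-bound Flag fusions (TNKS1 1,024-1,327aa SAM+PARP; TNKS2 613-1,116aa ANK5+SAM+PARP, cell-free synthesized) saw compound for 10 min at room temperature in 50 mM Tris-HCl pH 8.0, 4 mM MgCl2, 0.2 mM DTT. Reaction with 225 μM NAD/25 μM 6-biotin-17-NAD solution ran 45 min at 30 °C.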

The target of a further experiment is T2, tankyrase 2 (TNKS 2) (Homo sapiens, UniProt Q9H2K2).
T2 construct: 613-1, 116aa; made in house; host or cells: cell-free protein synthesis system
In words: Tankyrase inhibitory activity test (ELISA, self-polyADP ribosylation), tankyrase 2. It is filed as biochemical. The following applies: self-polyADP ribosylation. The gist of the method: as §1
(In general: An ELISA detects its analyte on a solid surface through an enzyme-linked reagent.)

The subject of experiment [1] is human colorectal cancer cell line, COLO-320DM. In words: Cell proliferation inhibitory activity test (Celltiter-Glo Luminescent Cell Viability Assay). It is filed as cell-based. The following applies: COLO-320DM cells, 96 hours. The procedure, abridged:
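GI50 is taken as the concentration halving cell growth versus 1% DMSO control, measured by ATP luminescence. Compound exposure lasted 96 h at 37° C. under 5% CO2, after overnight seeding in RPMI-1640 with 10% FBS and 2 mM glutamine.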

Where [2] appears, read: ELISA, class symbols, read-out: TNKS1 (inhibitory activity against tankyrase 1, IC50 value).
[3] abbreviates: ELISA, class symbols, read-out: TNKS2 (inhibitory activity against tankyrase 2, IC50 value).
The mark [4] stands for this setting: class symbols, read-out: COLO-320 DM (cell proliferation inhibitory activity, GI50 value).
Setting [5] is: tankyrase 1, ELISA, read-out: TNKS1 inhibitory activity (IC50 class).
The mark [6] stands for this setting: tankyrase 2, ELISA, read-out: TNKS2 inhibitory activity (IC50 class).
Where [7] appears, read: read-out: COLO-320 DM cell proliferation inhibitory activity (GI50 class).

Where two headings read alike, the source gives them in different places. Some results are limits rather than exact numbers.

T1 sequence (O95271 1024-1327): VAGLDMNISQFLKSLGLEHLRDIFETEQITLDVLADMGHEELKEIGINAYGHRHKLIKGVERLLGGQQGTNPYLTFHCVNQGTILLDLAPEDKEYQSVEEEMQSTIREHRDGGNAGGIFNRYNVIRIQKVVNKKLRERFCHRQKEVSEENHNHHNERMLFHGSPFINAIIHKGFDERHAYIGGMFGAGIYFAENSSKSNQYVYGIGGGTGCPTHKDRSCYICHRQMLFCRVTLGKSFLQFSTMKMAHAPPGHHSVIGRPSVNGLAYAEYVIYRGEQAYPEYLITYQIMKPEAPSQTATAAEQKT
T2 sequence (Q9H2K2 613-1166): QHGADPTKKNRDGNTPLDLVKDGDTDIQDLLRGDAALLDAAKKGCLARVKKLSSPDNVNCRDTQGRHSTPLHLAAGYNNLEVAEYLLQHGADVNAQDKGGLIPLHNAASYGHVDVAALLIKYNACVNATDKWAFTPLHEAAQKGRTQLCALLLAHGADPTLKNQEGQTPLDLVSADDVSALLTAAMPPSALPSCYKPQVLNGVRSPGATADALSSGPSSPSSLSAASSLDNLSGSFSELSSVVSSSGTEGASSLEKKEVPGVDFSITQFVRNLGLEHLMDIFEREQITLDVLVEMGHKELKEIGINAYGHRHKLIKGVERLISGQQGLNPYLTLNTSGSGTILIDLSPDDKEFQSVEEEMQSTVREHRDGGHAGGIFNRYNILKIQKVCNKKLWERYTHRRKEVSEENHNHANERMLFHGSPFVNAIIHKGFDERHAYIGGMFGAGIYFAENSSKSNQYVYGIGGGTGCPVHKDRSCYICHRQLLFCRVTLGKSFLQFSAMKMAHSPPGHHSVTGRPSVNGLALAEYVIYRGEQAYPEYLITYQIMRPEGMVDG

A word on the IC50: it is the concentration that gives 50% inhibition. As to `CN1CCCc2c1nc(N1CCC3(CC1)C(=O)N(C)c1cc(N4CCN(C5COC5)CC4)cc(F)c13)[nH]c2=O` [Example 398, 4-fluoro-1-methyl-1′-(8-methyl-4-oxo-3,4,5,6,7,8-hexahydro-pyrido [2,3-d]pyrimidin-2-yl)-6-(4-(oxetan-3-yl)piperazin-1-yl)spiro [indoline-3,4′-piperidin]-2(1H)-one], the IC50 on tankyrase 1 (TNKS 1) (setting [2]) and on tankyrase 2 (TNKS 2) (setting [3]) was below 20 nM in each case. Further, the GI50 in experiment [1] (setting [4]) lay in the range of 100 to 600 nM.

Regarding `CC1CN(c2cc(F)c3c(c2)C(=O)OC32CCN(c3nc4c(c(=O)[nH]3)CCCN4)CC2)CC(C)O1` (stereo not drawn) [Example 472, 6-(2,6-dimethylmorpholin-4-yl)-4-fluoro-1′-(4-hydroxy-5,6,7,8-tetrahydropyrido[2,3-d]pyrimidin-2-yl) spiro[2-benzofuran-3,4′-piperidin]-1-one], the IC50 on tankyrase 1 (TNKS 1) (setting [2]) and on tankyrase 2 (TNKS 2) (setting [3]) was below 20 nM each time. Besides, the GI50 in experiment [1] (setting [4]) is 600 to 1000 nM.

Turning to `CN1CCCc2c1nc(N1CCC3(CC1)C(=O)N(C)c1cc(OCCNS(=O)(=O)N(C)C)cc(F)c13)[nH]c2=O` [Example 428, 6-[2-(N,N-dimethyl-sulfamoyl)amino-ethoxy]-4-fluoro-1-methyl-1′-(8-methyl-4-oxo-3,4,5,6,7,8-hexahydro-pyrido[2,3-d]pyrimi-din-2-yl)spiro [indoline-3,4′-piperidin]-2(1 H)-one], the IC50 at tankyrase 1 (TNKS 1) (setting [2]) and at tankyrase 2 (TNKS 2) (setting [3]) was below 20 nM in each case. The GI50 in experiment [1] (setting [4]) was in the range of 100 to 600 nM.

Turning to `CN1CCCc2c1nc(N1CCC3(CC1)C(=O)N(CCO)c1cc(OCCO)cc(F)c13)[nH]c2=O` [Example 381, 4-fluoro-6-(2-hydroxy-thoxy)-1-(2-hydroxyethyl)-1′-(8-methyl-4-oxo-3,4,5,6,7,8-hexahydropyrido [2,3-d]pyrimidin-2-yl)spiro [indoline-3,4′-piperidin]-2-one], the IC50 at tankyrase 1 (TNKS 1) (setting [5]) and at tankyrase 2 (TNKS 2) (setting [6]) was below 20 nM throughout. Also, in experiment [1] (setting [7]), the GI50 lay in the range of 100 to 600 nM.

Consider `CN1CCCc2c1nc(N1CCC3(CC1)C(=O)Nc1cccc(F)c13)[nH]c2=O` [Example 185, 2-(4-fluoro-2-oxospiro [indoline-3,4′-piperidin]-1′-yl)-8-methyl-5,6,7,8-tetrahydro-pyrido[2,3-d] pyrimidine-4(3H)-one], for which the IC50 on tankyrase 1 (TNKS 1) (setting [5]) and at tankyrase 2 (TNKS 2) (setting [6]) was below 20 nM throughout. The GI50 in experiment [1] (setting [7]) is 100 to 600 nM.

Take `CN1CCCc2c1nc(N1CCC3(CC1)C(=O)N(C)c1cc(OCCO)cc(F)c13)[nH]c2=O` [Example 356, 4-fluoro-6-(2-hydroxy-ethoxy)-1-methyl-1′-(8-methyl-4-oxo-3,4,5,6,7,8-hexahydro-pyrido[2,3-d]pyrimidin-2-yl) spiro [indoline-3,4′-piperidin]-2-one]: the IC50 on tankyrase 1 (TNKS 1) (setting [5]) and on tankyrase 2 (TNKS 2) (setting [6]) was below 20 nM in each case. Besides, the GI50 in experiment [1] (setting [7]) was in the range of 100 to 600 nM.

`CN1CCCc2c1nc(N1CCC3(CC1)C(=O)N(C)c1cc(N4CCN(S(=O)(=O)N(C)C)CC4)cc(F)c13)[nH]c2=O` [Example 458, 4-[4-fluoro-1-meth-yl-1′-(8-methyl-4-oxo-3,4,5,6,7,8-hexahydropyrido [2,3-d]pyrimidin-2-yl)-2-oxospiro [indole-3,4′-piperi-dine]-6-yl]-N,N-di-methylpiperazine-1-sulfonamide]: the IC50 on tankyrase 1 (TNKS 1) (setting [2]) was 20 to 200 nM; at tankyrase 2 (TNKS 2) (setting [3]) it was below 20 nM. In addition, the GI50 in experiment [1] (setting [4]) was 100 to 600 nM.

With `CN1C(=O)C2(CCN(c3nc4c(c(=O)[nH]3)CCCN4)CC2)c2c(F)ccc(OCCO)c21` [Example 414, 4-fluoro-7-(2-hydroxy-ethoxy)-1′-(4-hydroxy-5,6,7,8-tetrahdyro-pyrido[2,3-d]pyrimidin-2-yl)-1-methyl-spiro [indole-3,4′-piperidin]-2-one], the IC50 on tankyrase 1 (TNKS 1) (setting [2]) and on tankyrase 2 (TNKS 2) (setting [3]) was below 20 nM in each case. The GI50 in experiment [1] (setting [4]) was in the range of 600 to 1000 nM.

On to `COCCN1C(=O)C2(CCN(c3nc4c(c(=O)[nH]3)CCCN4C)CC2)c2c(F)cc(OCCO)cc21` [Example 410, 4-fluoro-6-(2-hydroxy-ethoxy)-1-(2-methoxyethyl)-1′-(8-methyl-4-oxo-3,4,5,6,7,8-hexahydro-pyrido[2,3-d]pyrimi-din-2-yl)spiro[indoline-3,4′-piperidin]-2(1H)-one], for which the IC50 on tankyrase 1 (TNKS 1) (setting [2]) and at tankyrase 2 (TNKS 2) (setting [3]) was below 20 nM each time. In addition, the GI50 in experiment [1] (setting [4]) was 100 to 600 nM.

`CN(C)c1ccc(-c2cc(F)c3c(c2)C(=O)OC32CCN(c3nc4c(c(=O)[nH]3)CCCN4C)CC2)cc1` [Example 449, 6-[4-(dimethylami-no)phenyl]-4-fluoro-1′-(4-hydroxy-8-methyl-6,7-di-hydro-5H-pyrido[2,3-d]pyrimidin-2-yl)spiro[2-benzo-furan-3,4′-piperidine]-1-one]: the IC50 at tankyrase 1 (TNKS 1) (setting [2]) and on tankyrase 2 (TNKS 2) (setting [3]) was 20 to 200 nM each time. For the same molecule, the GI50 in experiment [1] (setting [4]) was 100 to 600 nM.

On to `CC(=O)NS(=O)(=O)COc1cc(F)c2c(c1)N(C)C(=O)C21CCN(c2nc3c(c(=O)[nH]2)CCCN3C)CC1` [Example 456, N-[[4-fluoro-1-meth-yl-1′-(8-methyl-4-oxo-3,4,5,6,7,8-hexahydropyrido [2,3-d]pyrimidin-2-yl)-2-oxospiro [indole-3,4′-piperi-dine]-6-yl]oxymeth-ylsulfonyl]aceta-mide], for which the IC50 at tankyrase 1 (TNKS 1) (setting [2]) and at tankyrase 2 (TNKS 2) (setting [3]) was below 20 nM throughout. In experiment [1] (setting [4]), the GI50 fell in the range of 100 to 600 nM.

For `O=c1[nH]c(N2CCC3(CC2)CN(Cc2ccccc2F)c2cc(F)cc(F)c23)nc2c1CCCC2` [Example 341, 2-[4,6-difluoro-1-(2-fluorobenzyl)spiro [indoline-3,4′-piperidin]-1′-yl]-5,6,7,8-tetrahy-droquinazolin-4(3H)-one], the IC50 on tankyrase 1 (TNKS 1) (setting [5]) and at tankyrase 2 (TNKS 2) (setting [6]) was 20 to 200 nM throughout. Besides, the GI50 in experiment [1] (setting [7]) was in the range of 600 to 1000 nM.

For the molecule `CN1CCCc2c1nc(N1CCC3(CC1)C(=O)N(C)c1cc(OCCN4CCOCC4)cc(F)c13)[nH]c2=O` [Example 360, 4-fluoro-1-methyl-1′-(8-methyl-4-oxo-3,4,5,6,7,8-hexahydropy-rido[2,3-d]pyrimidin-2-yl)-6-(2-morpho-linoethoxy) spiro [indoline-3,4′-piperidin]-2-one], the IC50 on tankyrase 1 (TNKS 1) (setting [5]) and on tankyrase 2 (TNKS 2) (setting [6]) was below 20 nM each time. Also, the GI50 in experiment [1] (setting [7]) was 100 to 600 nM.

As to `CN1CCN(CCOc2cc(F)c3c(c2)N(CC(F)(F)F)C(=O)C32CCN(c3nc4c(c(=O)[nH]3)CCCN4C)CC2)CC1` [Example 406, 4-fluoro-1′-(8-methyl-4-oxo-3,4,5,6,7,8-hex-ahydropyrido[2,3-d]pyrimidin-2-yl)-6-[2-(4-methylpiperazin-1-yl)ethoxy]-1-(2,2,2-trifluoroethyl)spiro [indoline-3,4′-piperidin]-2(1H)-one], the IC50 at tankyrase 1 (TNKS 1) (setting [2]) and on tankyrase 2 (TNKS 2) (setting [3]) was 20 to 200 nM in each case. Moreover, the GI50 in experiment [1] (setting [4]) was below 100 nM.

Take `CN1CCCc2c1nc(N1CCC3(CC1)C(=O)N(C)c1cc(N4CCNCC4)cc(F)c13)[nH]c2=O` [Example 457, 4-fluoro-1-methyl-1′-(8-methyl-4-oxo-3,4,5,6,7,8-hexahydropyrido [2,3-d]pyrimidin-2-yl)-6-piperazin-1-yl-spiro[indole-3,4′-piperidine]-2(1H)-one]: the IC50 at tankyrase 1 (TNKS 1) (setting [2]) and at tankyrase 2 (TNKS 2) (setting [3]) was 20 to 200 nM in each case. Moreover, in experiment [1] (setting [4]), the GI50 was in the range of 600 to 1000 nM.

Turning to `COCCN1C(=O)C2(CCN(c3nc4c(c(=O)[nH]3)CCCN4C)CC2)c2c(F)cc(N3CCN(C)CC3)cc21` [Example 407, 4-fluoro-1-(2-methoxy-ethyl)-1′-(8-methyl-4-oxo-3,4,5,6,7,8-hexahydropyrido[2,3-d]pyrimidin-2-yl)-6-(4-methylpiperazin-1-yl) spiro[indoline-3,4′-piperidin]-2(1H)-one], the figures for the IC50 on tankyrase 1 (TNKS 1) (setting [2]) and at tankyrase 2 (TNKS 2) (setting [3]) were 20 to 200 nM and below 20 nM, respectively. Moreover, in experiment [1] (setting [4]), the GI50 was in the range of 100 to 600 nM.

With `O=C(NCCN1CCOCC1)c1cc(Cl)c2c(c1)N(Cc1cccnc1)CC21CCN(c2nc3c(c(=O)[nH]2)CCCC3)CC1` [Example 196, 4-chloro-N-(2-morpho-linoethyl)-1′-(4-oxo-3,4,5,6,7,8-hexahydro-quinazolin-2-yl)-1-(pyridin-3-ylmethyl) spiro[indoline-3,4′-piperidine]-6-carboxamide], the IC50 on tankyrase 1 (TNKS 1) (setting [5]) and at tankyrase 2 (TNKS 2) (setting [6]) was below 20 nM throughout. For the same molecule, the GI50 in experiment [1] (setting [7]) lay in the range of 600 to 1000 nM.

Regarding `CCOC(=O)c1coc(-c2cc(Cl)c3c(c2)N(C)C(=O)C32CCN(c3nc4c(c(=O)[nH]3)CCCN4C)CC2)n1` [Example 328, 4-chloro-6-(4-ethoxy-carbonyl-oxazole-2-yl)-1-methyl-1′-(8-methyl-4-oxo-3,4,5,6,7,8-hexahydro-pyrido[2,3-d]-pyrimidin-2-yl)spiro-[indoline-3,4′-piperidin]-2-one], the IC50 at tankyrase 1 (TNKS 1) (setting [5]) was 20 to 200 nM; at tankyrase 2 (TNKS 2) (setting [6]) it was below 20 nM. For the same molecule, the GI50 in experiment [1] (setting [7]) lay in the range of 100 to 600 nM.

Consider `O=c1[nH]c(N2CCC3(CC2)CN(Cc2cccnc2)c2cc(F)cc(F)c23)nc2c1CCCC2` [Example 251, 2-[4,6-difluoro-1-(pyridin-3-yl)methyl-spiro [indoline-3,4′-piperidin]-1′-yl]-5,6,7,8-tetrahydro-quinazolin-4(3H)-one], for which the IC50 at tankyrase 1 (TNKS 1) (setting [5]) and at tankyrase 2 (TNKS 2) (setting [6]) was below 20 nM each time. For the same molecule, the GI50 in experiment [1] (setting [7]) is 100 to 600 nM.
